In assay [1] the target is T1, KRas G12D (Homo sapiens (Human), UniProt P01116, G12D). Kind of assay: KRas G12D Binding Assay (TR-FRET displacement of Cy5 labelled tracer). The note with it: GDP-loaded KRAS G12D (amino acids 1:169), 60 minute incubation at 22° C. The procedure: After a 60 minute incubation at 22° C., the reaction was measured using a PerkinElmer EnVision multimode plate reader via TR-FRET dual wavelength detection, and the percent of control (POC) calculated using a ratiometric emission factor. […] The POC values were fit to a 4-parameter logistic curve and the IC50 value was determined as the concentration where the curve crosses 50 POC.
ND stands for “not determined.”
In general terms: In TR-FRET formats the signal depends on donor and acceptor labels being close together.
Target sequence in this assay (P01116 other isoform, or with tags, fused parts or gaps G12D): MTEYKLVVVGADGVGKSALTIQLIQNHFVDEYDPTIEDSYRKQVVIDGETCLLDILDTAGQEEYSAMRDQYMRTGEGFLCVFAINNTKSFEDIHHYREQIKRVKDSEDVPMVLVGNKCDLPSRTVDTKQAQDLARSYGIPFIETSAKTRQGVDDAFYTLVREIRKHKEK

The target of assay [2] is T1, KRas G12D. Put plainly: KRas G12D Surface Plasmon Resonance (SPR) Binding Assay. The note with it: Biacore T200, immobilized biotinylated KRAS protein, 1:1 binding model.
Target sequence in this assay (P01116-2 other isoform, or with tags, fused parts or gaps G12D): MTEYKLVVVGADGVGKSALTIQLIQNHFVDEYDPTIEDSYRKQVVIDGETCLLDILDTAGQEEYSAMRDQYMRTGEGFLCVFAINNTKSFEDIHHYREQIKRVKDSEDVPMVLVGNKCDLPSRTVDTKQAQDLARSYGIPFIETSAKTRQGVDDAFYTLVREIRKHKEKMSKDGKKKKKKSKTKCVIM

Each structure is given as a SMILES string. A value given as a limit tells only on which side of the number the result lay.

Consider `COCCN1CCC(Oc2nc(N3C[C@H]4CC[C@@H](C3)N4)c3cnc(-c4cccc5ccccc45)c(F)c3n2)CC1` [Example 39, 4-((1R,5S)-3,8-diazabicyclo[3.2.1]octan-3-yl)-8-fluoro-2-((1-(2-methoxyethyl)piperidin-4-yl)oxy)-7-(naphthalen-1-yl)pyrido[4,3-d]pyrimidine], for which the IC50 (as a rule, the concentration that inhibits the measured activity by half) at KRas G12D [1] is over 10 µM. In addition, the Kd (in general, the concentration at which binding is half-saturated) on KRas G12D [2] stood at 67.8 µM.
The matching figures for `Oc1cc(-c2ncc3c(N4C[C@H]5CC[C@@H](C4)N5)nc(OC[C@@H]4CC5CCN4C5)nc3c2F)c2ccccc2c1` [Example 40, 4-(2-(((2S)-1-azabicyclo[2.2.1]heptan-2-yl)methoxy)-4-((1R,5S)-3,8-diazabicyclo[3.2.1]octan-3-yl)-8-fluoropyrido[4,3-d]pyrimidin-7-yl)naphthalen-2-ol]: 0.004 µM and 0.0017 µM.
In turn, `COCCCN1CCC(Oc2nc(N3C[C@H]4CC[C@@H](C3)N4)c3cnc(-c4cc(O)cc5ccccc45)c(F)c3n2)CC1` [Example 41, 4-(4-((1R,5S)-3,8-diazabicyclo[3.2.1]octan-3-yl)-8-fluoro-2-((1-(3-methoxypropyl)piperidin-4-yl)oxy)pyrido[4,3-d]pyrimidin-7-yl)naphthalen-2-ol] gave an IC50 at KRas G12D [1] of 0.0767 µM. In addition, the Kd on KRas G12D [2] worked out at 0.181 µM.
The matching figures for `CO[C@@H]1C[C@@H](COc2nc(N3C[C@H]4CC[C@@H](C3)N4)c3cnc(-c4cc(O)cc5ccccc45)c(F)c3n2)N(C)C1` [Example 42, 4-(4-((1R,5S)-3,8-diazabicyclo[3.2.1]octan-3-yl)-8-fluoro-2-(((2S,4R)-4-methoxy-1-methylpyrrolidin-2-yl)methoxy)pyrido[4,3-d]pyrimidin-7-yl)naphthalen-2-ol]: 0.0031 µM and 0.0056 µM.
In the case of `CCO[C@@H]1C[C@@H](COc2nc(N3C[C@H]4CC[C@@H](C3)N4)c3cnc(-c4cccc5cccc(Cl)c45)c(F)c3n2)N(C)C1` [Example 43, 4-((1R,5S)-3,8-diazabicyclo[3.2.1]octan-3-yl)-7-(8-chloronaphthalen-1-yl)-2-(((2S,4R)-4-ethoxy-1-methylpyrrolidin-2-yl)methoxy)-8-fluoropyrido[4,3-d]pyrimidine], the IC50 at KRas G12D [1] came to 0.0722 µM. The compound also had a Kd on KRas G12D [2] of 0.188 µM.
The matching figures for `CN1CCC[C@H]1COc1nc(N2C[C@H]3CC[C@@H](C2)N3)c2cnc(-c3cccc4ccc(F)c(Cl)c34)c(F)c2n1` [Example 44, 4-((1R,5S)-3,8-diazabicyclo[3.2.1]octan-3-yl)-7-(8-chloro-7-fluoronaphthalen-1-yl)-8-fluoro-2-(((S)-1-methylpyrrolidin-2-yl)methoxy)pyrido[4,3-d]pyrimidine]: 0.0337 µM and 0.0317 µM.
The matching figures for `Fc1c(-c2cccc3cccc(Cl)c23)ncc2c(N3C[C@H]4CC[C@@H](C3)N4)nc(OCC34CCCN3CCC4)nc12` [Example 45, 4-((1R,5S)-3,8-diazabicyclo[3.2.1]octan-3-yl)-7-(8-chloronaphthalen-1-yl)-8-fluoro-2-((tetrahydro-1H-pyrrolizin-7a(5H)-yl)methoxy)pyrido[4,3-d]pyrimidine]: 0.0055 µM and 0.0051 µM.
The matching figures for `Oc1cc(-c2ncc3c(N4C[C@H]5CC[C@@H](C4)N5)nc(OCC4(C(F)(F)F)CCCC4)nc3c2F)c2ccccc2c1` [Example 46, 4-(4-((1R,5S)-3,8-diazabicyclo[3.2.1]octan-3-yl)-8-fluoro-2-((1-(trifluoromethyl)cyclopentyl)methoxy)pyrido[4,3-d]pyrimidin-7-yl)naphthalen-2-ol]: 0.721 µM and 0.798 µM.
Consider `CCCOc1nc(N2C[C@H]3CC[C@@H](C2)N3)c2cnc(-c3cc(O)cc4ccccc34)c(F)c2n1` [Example 47, 4-(4-((1R,5S)-3,8-diazabicyclo[3.2.1]octan-3-yl)-8-fluoro-2-propoxypyrido[4,3-d]pyrimidin-7-yl)naphthalen-2-ol], for which the IC50 on KRas G12D [1] is 0.265 µM. Moreover, the equilibrium dissociation constant (Kd) on KRas G12D [2] is 0.51 µM.
The like results for `Oc1cc(-c2ncc3c(N4C[C@H]5CC[C@@H](C4)N5)nc(OCC(F)(F)F)nc3c2F)c2ccccc2c1` [Example 48, 4-(4-((1R,5S)-3,8-diazabicyclo[3.2.1]octan-3-yl)-8-fluoro-2-(2,2,2-trifluoroethoxy)pyrido[4,3-d]pyrimidin-7-yl)naphthalen-2-ol] were, in that order, 0.434 µM and 0.931 µM.
The matching figures for `Oc1cc(-c2ncc3c(N4C[C@H]5CC[C@@H](C4)N5)nc(OC[C@@H]4CCCN4)nc3c2F)c2ccccc2c1` [Example 50, 4-(4-((1R,5S)-3,8-diazabicyclo[3.2.1]octan-3-yl)-8-fluoro-2-(((S)-pyrrolidin-2-yl)methoxy)pyrido[4,3-d]pyrimidin-7-yl)naphthalen-2-ol]: 0.0025 µM and 0.0021 µM.
The like results for `Oc1cc(-c2ncc3c(N4C[C@H]5CC[C@@H](C4)N5)nc(OCC4(C(F)(F)F)CC4)nc3c2F)c2ccccc2c1` [Example 51, 4-(4-((1R,5S)-3,8-diazabicyclo[3.2.1]octan-3-yl)-8-fluoro-2-((1-(trifluoromethyl)cyclopropyl)methoxy)pyrido[4,3-d]pyrimidin-7-yl)naphthalen-2-ol] were, in that order, 0.292 µM and 0.611 µM.
`Oc1cc(-c2ncc3c(N4C[C@H]5CC[C@@H](C4)N5)nc(OCC(F)(F)C(F)F)nc3c2F)c2ccccc2c1` [Example 52, 4-(4-((1R,5S)-3,8-diazabicyclo[3.2.1]octan-3-yl)-8-fluoro-2-(2,2,3,3-tetrafluoropropoxy)pyrido[4,3-d]pyrimidin-7-yl)naphthalen-2-ol]: the IC50 at KRas G12D [1] came out at 0.318 µM. The compound further showed a Kd at KRas G12D [2] of 0.507 µM.
The like results for `Fc1c(-c2cccc3cccc(Cl)c23)ncc2c(N3C[C@H]4CC[C@@H](C3)N4)nc(OCC3COC3)nc12` [Example 53, 4-((1R,5S)-3,8-diazabicyclo[3.2.1]octan-3-yl)-7-(8-chloronaphthalen-1-yl)-8-fluoro-2-(oxetan-3-ylmethoxy)pyrido[4,3-d]pyrimidine] were, in that order, 1.88 µM and 4.37 µM.
The like results for `Fc1c(-c2cccc3cccc(Cl)c23)ncc2c(N3C[C@H]4CC[C@@H](C3)N4)nc(OCC34CCCCN3CCC4)nc12` (stereo partly drawn) [Example 54, 4-((1R,5S)-3,8-diazabicyclo[3.2.1]octan-3-yl)-7-(8-chloronaphthalen-1-yl)-8-fluoro-2-((hexahydroindolizin-8a(1H)-yl)methoxy)pyrido[4,3-d]pyrimidine] were, in that order, 0.0687 µM and 0.118 µM.
The matching figures for `OC[C@H](O)COc1nc(N2C[C@H]3CC[C@@H](C2)N3)c2cnc(-c3cccc4cccc(Cl)c34)c(F)c2n1` [Example 55, (S)-3-((4-((1R,5S)-3,8-diazabicyclo[3.2.1]octan-3-yl)-7-(8-chloronaphthalen-1-yl)-8-fluoropyrido[4,3-d]pyrimidin-2-yl)oxy)propane-1,2-diol]: 6.13 µM and 22.4 µM.
Consider `OC[C@@H](O)COc1nc(N2C[C@H]3CC[C@@H](C2)N3)c2cnc(-c3cccc4cccc(Cl)c34)c(F)c2n1` [Example 56, (R)-3-((4-((1R,5S)-3,8-diazabicyclo[3.2.1]octan-3-yl)-7-(8-chloronaphthalen-1-yl)-8-fluoropyrido[4,3-d]pyrimidin-2-yl)oxy)propane-1,2-diol], for which the IC50 at KRas G12D [1] worked out at 5.92 µM. In addition, on KRas G12D [2], the Kd was determined as 5.17 µM.
The like results for `OCC(O)CCOc1nc(N2C[C@H]3CC[C@@H](C2)N3)c2cnc(-c3cccc4cccc(Cl)c34)c(F)c2n1` (stereo partly drawn) [Example 57, 4-((4-((1R,5S)-3,8-diazabicyclo[3.2.1]octan-3-yl)-7-(8-chloronaphthalen-1-yl)-8-fluoropyrido[4,3-d]pyrimidin-2-yl)oxy)butane-1,2-diol] were, in that order, 7.29 µM and over 1000 µM.
The like results for `OCC[C@@H](CO)Oc1nc(N2C[C@H]3CC[C@@H](C2)N3)c2cnc(-c3cccc4cccc(Cl)c34)c(F)c2n1` [Example 58, (S)-2-((4-((1R,5S)-3,8-diazabicyclo[3.2.1]octan-3-yl)-7-(8-chloronaphthalen-1-yl)-8-fluoropyrido[4,3-d]pyrimidin-2-yl)oxy)butane-1,4-diol] were, in that order, 2.33 µM and 4.73 µM.
The like results for `OCC(COc1nc(N2C[C@H]3CC[C@@H](C2)N3)c2cnc(-c3cccc4cccc(Cl)c34)c(F)c2n1)c1cccnc1` (stereo partly drawn) [Example 59, 3-((4-((1R,5S)-3,8-diazabicyclo[3.2.1]octan-3-yl)-7-(8-chloronaphthalen-1-yl)-8-fluoropyrido[4,3-d]pyrimidin-2-yl)oxy)-2-(pyridin-3-yl)propan-1-ol] were, in that order, 0.946 µM and 1.12 µM.
Consider `O=C(O)CCOc1nc(N2C[C@H]3CC[C@@H](C2)N3)c2cnc(-c3cccc4cccc(Cl)c34)c(F)c2n1` [Example 61, 3-((4-((1R,5S)-3,8-diazabicyclo[3.2.1]octan-3-yl)-7-(8-chloronaphthalen-1-yl)-8-fluoropyrido[4,3-d]pyrimidin-2-yl)oxy)propanoic acid compound with 2,2,2-trifluoroacetaldehyde], for which the IC50 at KRas G12D [1] is 4.08 µM. The same compound showed a dissociation constant Kd at KRas G12D [2] of 0.116 µM.
`Oc1cc(-c2ncc3c(N4C[C@H]5CC[C@@H](C4)N5)nc(OCCc4ccccc4F)nc3c2F)c2ccccc2c1` [Example 67, 4-(4-((1R,5S)-3,8-diazabicyclo[3.2.1]octan-3-yl)-8-fluoro-2-(2-fluorophenethoxy)pyrido[4,3-d]pyrimidin-7-yl)naphthalen-2-ol] showed an IC50 at KRas G12D [1] of 1.25 µM. The Kd on KRas G12D [2] came to 1.15 µM.
The like results for `COCCCOc1nc(N2C[C@H]3CC[C@@H](C2)N3)c2cnc(-c3cc(O)cc4ccccc34)c(F)c2n1` [Example 68, 4-(4-((1R,5S)-3,8-diazabicyclo[3.2.1]octan-3-yl)-8-fluoro-2-(3-methoxypropoxy)pyrido[4,3-d]pyrimidin-7-yl)naphthalen-2-ol] were, in that order, 0.257 µM and 0.293 µM.

The record behind these values is US20230279025A1, “KRAS G12D INHIBITORS” (Mirati Therapeutics, Inc., priority 2020, published 2023).
